Data as given in patent EP3293246A1, “LUBRICANT COMPOSITIONS CONTAINING DIUREA COMPOUNDS” (BASF SE, priority 2016, dated 2018).

assay: Solubility 0.5% in base oil Yubase 4, visual inspection of appearance; type: physicochemical; conditions: 0.5 g compound stirred with 99.5 g Yubase 4 at 100°C for 4 hours, cooled to room temperature
Description: For the determination of the solubilities, 0.5 g of the compound under test was stirred with 99.5 g of Yubase 4 at 100°C for 4 hours and subsequently cooled to room temperature. The appearance of the solution was assessed by visual inspection.

Solubility 0.5% in Yubase 4; visible appearance, no clear solution:
CCCCC(CC)CNC(=O)Nc1ccc(C)c(NC(=O)NCC(CC)CCCC)c1 (stereo not drawn) [Example 1], CCCCCCCCC=CCCCCCCCCNC(=O)Nc1ccc(C)c(NC(=O)NCCCCCCCCC=CCCCCCCCC)c1 [Example 5], Cc1ccc(NC(=O)NC(C)CCCC(C)C)cc1NC(=O)NC(C)CCCC(C)C (stereo not drawn) [Example 6]
